What follows are compounds tested against T1, small-conductance Ca2+-activated K+ channels (SK channels, subtype 2) (Homo sapiens, UniProt Q9H2S1) (assay: whole-cell patch-clamp of ionic current through SK2 channels in HEK293 cells (SC100)). Conditions: whole-cell patch-clamp, HEK293 cells expressing SK2 channels; concentration that increases the basal current by 100%.
T1 construct: expressed in transfected cells; host or cells: HEK293
Format: cell-based
Method in brief: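 Whole-cell patch-clamp recording of current in HEK293 cells expressing SK2 channels. SC100 is the compound concentration that increases basal current by 100%.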

Row | Structure (SMILES) | SC100 (μM) | SC100 [µM]
1 | Cc1ccn(-c2nc(N3CCCCC3)cc(N3CCOC(CO)C3)n2)n1 (stereo not shown) [IN10882-072-P1, (4-(2-(3-methyl-1H-pyrazol-1-yl)-6-(piperidin-1-yl)pyrimidin-4-yl)morpholin-2-yl) methanol] | + (+ means >1 uM) | –
2 | Cc1ccn(-c2nc(NC(C)(C)C)cc(N3CCOC(CO)C3)n2)n1 (stereo not shown) [IN10882-083-P1] | + (+ means >1 uM) | –
3 | Cc1cc(C)n(-c2cc(NC3CCC(F)(F)CC3)cc(N3CCOCC3)c2)n1 [IN10963-024-P1, N-(4,4-difluorocyclohexyl)-3-(3,5-dimethyl-1H-pyrazol-1-yl)-5-morpholinoaniline] | + (+ means >1 uM) | –
4 | Cc1cc(C)n(-c2nc(NC3CCC(F)CC3)cc(N3CCOCC3)n2)n1 (stereo not shown) [IN10963-049-P1] | ++ (++ means 200 nM-1000 nM) | –
5 | Cc1cc(C)n(-c2nc(NC3CCC(F)(F)CC3)cc(C(C)OC(C)C)n2)n1 (stereo not shown) [IN10963-068-P1, N-(4,4-difluorocyclohexyl)-2-(3,5-dimethyl-1H-pyrazol-1-yl)-6-(1-isopropoxyethyl)pyrimidin-4-amine] | + (+ means >1 uM) | –
6 | Cc1cc(C)n(-c2nc(CCO)cc(NC3CCC(F)(F)CC3)n2)n1 [IN10963-077-P1, 2-(6-((4,4-difluorocyclohexyl)amino)-2-(3,5-dimethyl-1H-pyrazol-1-yl)pyrimidin-4-yl) ethan-1-ol] | + (+ means >1 uM) | –
7 | Cc1csc(-c2nc(NC3CCC(F)(F)CC3)cc(N3CCOC(COC(C)C)C3)n2)n1 (stereo not shown) [IN10964-007-P1] | +++ (+++ means <200 nM) | –
8 | Cc1cc(C)n(-c2nc(NC3CCC(F)(F)CC3)cc(N3CCOC(COC(C)C)C3)n2)n1 (stereo not shown) [IN10964-008-P1] | ++ (++ means 200 nM-1000 nM) | –
9 | Cc1cc(C)n(-c2nc(NC3CCC(F)(F)CC3)cc(C(C)N(C)C)n2)n1 (stereo not shown) [IN10964-046-P1, N-(4,4-difluorocyclohexyl)-2-(3,5-dimethyl-1H-pyrazol-1-yl)-6-(1-(dimethylamino)ethyl)pyrimidin-4-amine] | + (+ means >1 uM) | –
10 | Cc1cc(C)n(-c2nc(NC3CCC(F)(F)CC3)cc(N3CCOCC3COC(C)C)n2)n1 (stereo not shown) [IN10965-089-P1] | ++ (++ means 200 nM-1000 nM) | –
11 | Cc1csc(-c2nc(NC3CCC(F)(F)CC3)cc(N3CCOCC3COC(C)C)n2)n1 (stereo not shown) [IN10965-091-P1, N-(4,4-difluorocyclohexyl)-6-(3-(isopropoxymethyl)morpholino)-2-(4-methylthiazol-2-yl)pyrimidin-4-amine] | + (+ means >1 uM) | –
12 | Cc1cc(C)n(-c2ncc(N3CCOCC3)c(NC3CCC(F)(F)CC3)n2)n1 [IN10966-011-P1, N-(4,4-difluorocyclohexyl)-2-(3,5-dimethyl-1H-pyrazol-1-yl)-5-morpholinopyrimidin-4-amine] | + (+ means >1 uM) | –
13 | Cc1csc(-c2nc(NC3CCCC(F)(F)C3)cc(N3CCOCC3)n2)n1 (stereo not shown) [IN10966-028-P1] | ++ (++ means 200 nM-1000 nM) | –
14 | Cc1cc(NC2CC=C(F)CC2)nc(-c2nc(C)cs2)n1 (stereo not shown) [IN10966-057-P2, N-(4-fluorocyclohex-3-en-1-yl)-6-methyl-2-(4-methylthiazol-2-yl)pyrimidin-4-amine] | ++ (++ means 200 nM-1000 nM) | –
15 | Cc1cc(C)n(-c2cc(C)c(NC3CCC(F)(F)CC3)nn2)n1 [IN10966-083-P1, N-(4,4-difluorocyclohexyl)-6-(3,5-dimethyl-1H-pyrazol-1-yl)-4-methylpyridazin-3-amine] | + (+ means >1 uM) | –
16 | COCCOc1cc(NC2CCC(F)(F)CC2)nc(-n2ccc(C)n2)n1 [IN10966-093-P1] | + (+ means >1 uM) | –
17 | Cc1ccn(-c2nc(NC3CCC(F)(F)CC3)cc(OCCN(C)C)n2)n1 [IN10966-095-P1] | + (+ means >1 uM) | –
18 | Cc1ccnn1-c1cc(C#N)cc(NC2CCC(F)(F)CC2)n1 [IN10967-061-P1, 2-((4,4-difluorocyclohexyl)amino)-6-(5-methyl-1H-pyrazol-1-yl)isonicotinonitrile] | + (+ means >1 uM) | –
19 | Cc1ccn(-c2cc(CN)cc(NC3CCC(F)(F)CC3)n2)n1 [IN10967-063-P1, 4-(aminomethyl)-N-(4,4-difluorocyclohexyl)-6-(3-methyl-1H-pyrazol-1-yl)pyridin-2-amine] | ++ (++ means 200 nM-1000 nM) | –
20 | Cc1csc(-c2nc(NC3CCC(F)(F)CC3)cc(C(O)c3ccccc3)n2)n1 (stereo not shown) [IN10971-033-P1, (6-((4,4-difluorocyclohexyl)amino)-2-(4-methylthiazol-2-yl)pyrimidin-4-yl) (phenyl) methanol] | + (+ means >1 uM) | –
21 | Cc1ccc(-c2nc(NC3CCC(F)(F)CC3)cc(N3CCOCC3)n2)n1C [IN10971-059-P1, N-(4,4-difluorocyclohexyl)-2-(1,5-dimethyl-1H-pyrrol-2-yl)-6-morpholino pyrimidin-4-amine] | + (+ means >1 uM) | –
22 | FC1(F)CCC(Nc2cc(N3CCOCC3)nc(-c3ccco3)n2)CC1 [IN10971-060-P1, N-(4,4-difluorocyclohexyl)-2-(furan-2-yl)-6-morpholinopyrimidin-4-amine] | + (+ means >1 uM) | –

Row | Structure (SMILES) | SC100 (μM) | SC100 [µM]
23 | Cc1ccc(-c2nc(NC3CCC(F)(F)CC3)cc(N3CCOCC3)n2)o1 [IN10971-077-P1, N-(4,4-difluorocyclohexyl)-2-(5-methylfuran-2-yl)-6-morpholinopyrimidin-4-amine] | + (+ means >1 uM) | –
24 | Cc1cc(C)n(-c2nc(NC3CCC(F)(F)CC3)cc(N3CCOC(C#N)C3)n2)n1 (stereo not shown) [IN10971-081-P1, 4-(6-((4,4-difluorocyclohexyl)amino)-2-(3,5-dimethyl-1H-pyrazol-1-yl)pyrimidin-4-yl) morpholine-2-carbonitrile] | ++ (++ means 200 nM-1000 nM) | –
25 | Cc1ccc(-c2nc(NC3CCC(F)(F)CC3)cc(C(C)O)n2)o1 (stereo not shown) [IN10971-088-P1, 1-(6-((4,4-difluorocyclohexyl)amino)-2-(5-methylfuran-2-yl)pyrimidin-4-yl) ethan-1-ol] | + (+ means >1 uM) | –
26 | Cc1cc(C)n(-c2nc(C(C)O)cc(N(C)C3CCCCC3)n2)n1 (stereo not shown) [IN10973-004-P1] | + (+ means >1 uM) | –
27 | Cc1cc(C)n(-c2nc(NC3CCCC(C(F)(F)F)C3)cc(C(C)O)n2)n1 (stereo not shown) [IN10973-005-P1] | + (+ means >1 uM) | –
28 | Cc1cc(C)n(-c2nc(NC3CCCCC3)cc(C(C)O)n2)n1 (stereo not shown) [IN10973-008-P1] | + (+ means >1 uM) | –
29 | COC(=O)N1CCC(Oc2cc(NC3CCC(F)(F)CC3)nc(-c3nc(C)cs3)n2)C1 (stereo not shown) [IN10973-025-P1] | – | 1
30 | Cc1csc(-c2nc(NC3CCC(F)(F)CC3)cc(C(C)N3CCOCC3)n2)n1 (stereo not shown) [IN10973-028-P1, N-(4,4-difluorocyclohexyl)-2-(4-methylthiazol-2-yl)-6-(1-morpholinoethyl)pyrimidin-4-amine] | + (+ means >1 uM) | –
31 | FC1(F)CCC(Nc2cc(N3CCOCC3)nc(-n3cccn3)n2)CC1 [IN10973-038-P1, N-(4,4-difluorocyclohexyl)-6-morpholino-2-(1H-pyrazol-1-yl)pyrimidin-4-amine] | + (+ means >1 uM) | –
32 | Cc1ccn(-c2nc(NC3CCC(F)(F)CC3)cc(S(C)(=O)=O)n2)n1 [IN10973-041-P1] | + (+ means >1 uM) | –
33 | Cc1csc(-c2nc(NC3CCC(F)(F)CC3)cc(C(C)S(C)(=O)=O)n2)n1 (stereo not shown) [IN10973-053-P1, N-(4,4-difluorocyclohexyl)-6-(1-(methylsulfonyl)ethyl)-2-(4-methylthiazol-2-yl)pyrimidin-4-amine] | + (+ means >1 uM) | –
34 | Cc1ccn(-c2nc(NC3CCC(F)(F)CC3)cc(C(C)S(C)(=O)=O)n2)n1 (stereo not shown) [IN10973-060-P1, N-(4,4-difluorocyclohexyl)-2-(3-methyl-1H-pyrazol-1-yl)-6-(1-(methylsulfonyl)ethyl)pyrimidin-4-amine] | + (+ means >1 uM) | –
35 | COC(C)c1cc(NC2CCC(F)(F)CC2)nc(-n2ccc(C)n2)n1 (stereo not shown) [IN10973-083-P1, N-(4,4-difluorocyclohexyl)-6-(1-methoxyethyl)-2-(3-methyl-1H-pyrazol-1-yl)pyrimidin-4-amine] | + (+ means >1 uM) | –
36 | Cc1ccn(-c2cc(NC3CCC(F)(F)CC3)cc(N3CCOCC3)n2)n1 [IN10973-098-P1, N-(4,4-difluorocyclohexyl)-2-(3-methyl-1H-pyrazol-1-yl)-6-morpholinopyridin-4-amine] | + (+ means >1 uM) | –
37 | Cc1csc(-c2nc(NC3(C)CCCCC3)cc(N3CCOCC3)n2)n1 [IN10973-099-P1] | + (+ means >1 uM) | –
38 | Cc1cc(C)n(-c2nc(NC3CCC(F)(F)CC3)cc(N3CCOC(COC(F)F)C3)n2)n1 (stereo not shown) [IN10984-022-P1] | ++ (++ means 200 nM-1000 nM) | –
39 | Cc1ccn(-c2nc(NC3CCC(F)(F)CC3)cc(N(C)C3CCOC3)n2)n1 (stereo not shown) [IN10984-043-P1] | + (+ means >1 uM) | –
40 | Cc1ccn(-c2nc(NC3CCC(F)(F)CC3)nc(N3CCOCC3)n2)n1 [IN10984-079-P1, N-(4,4-difluorocyclohexyl)-4-(3-methyl-1H-pyrazol-1-yl)-6-morpholino-1,3,5-triazin-2-amine] | + (+ means >1 uM) | –
41 | Cc1cc(C)n(-c2nc(NC3CCC(F)(F)CC3)cc(C(O)c3ccccc3)n2)n1 (stereo not shown) [IN10987-030-P1] | + (+ means >1 uM) | –
42 | Cc1ccn(-c2nc(NC3CCC(F)(F)CC3)cc(C(O)c3ccccc3)n2)n1 (stereo not shown) [IN10987-039-P1] | + (+ means >1 uM) | –
43 | Cc1csc(-c2nc(NC3CCC(F)(F)CC3)cc(N3C[C@@H]4C[C@H]3CN4)n2)n1 [IN10987-050-P1] | + (+ means >1 uM) | –

From patent US10774064B2 (Cadent Therapeutics, Inc., priority 2016, dated 2020)
